{
  "source": "patent US20090054403A1",
  "about": "“Treatment of Post-Traumatic Stress Disorder” (priority 2007, published 2009)",
  "key": {"α2A adrenoceptors": {"target": "α2A adrenoceptors (Homo sapiens, UniProt P08913)", "sequence (P08913 whole entry)": "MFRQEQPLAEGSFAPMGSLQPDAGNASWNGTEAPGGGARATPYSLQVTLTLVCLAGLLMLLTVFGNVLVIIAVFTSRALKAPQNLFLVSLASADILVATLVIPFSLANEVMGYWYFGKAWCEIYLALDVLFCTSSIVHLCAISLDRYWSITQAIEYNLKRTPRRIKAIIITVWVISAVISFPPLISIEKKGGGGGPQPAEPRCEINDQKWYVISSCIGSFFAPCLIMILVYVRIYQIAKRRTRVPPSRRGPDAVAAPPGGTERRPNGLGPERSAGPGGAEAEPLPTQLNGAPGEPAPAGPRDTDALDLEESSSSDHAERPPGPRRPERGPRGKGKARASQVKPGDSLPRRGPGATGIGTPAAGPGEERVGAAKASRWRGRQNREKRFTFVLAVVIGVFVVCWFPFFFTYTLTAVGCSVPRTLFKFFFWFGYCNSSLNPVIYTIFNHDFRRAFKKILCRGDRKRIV", "experiment": "Radioligand binding assay", "experimental": "(§1) The activity of nepicastat at twelve selected enzymes and receptors was determined using established assays. Details of individual receptor radioligand binding assays can be found in Wong et al (1993). Binding data were analyzed by iterative curve-fitting to a four parameter logistic equation. Ki values were calculated from IC50 values using the Cheng-Prusoff equation. Enzyme inhibitory activity was expressed as IC50 (concentration required to produce 50% inhibition of enzyme activity). Male SHRs (15-16 weeks old, Charles River, Wilmington, Mass., USA) were used in the study. On the day of the study, animals were weighed and randomly assigned to be dosed with either vehicle (control) or the appropriate dose of nepicastat (3, 10, 30 or 100 mg.kg^−1, po) or (R)-5-Aminomethyl-1-(5,7-difluoro-1,2,3,4-tetrahydronaphth-2-yl)-2,3-dihydro-2-thioxo-1H-imidazole hydrochloride (30 mg.kg^−1, po) three consecutive times, twelve hours apart. At six hours after the third dose, the rats were anaesthetized with halothane, decapitated and tissues (cerebral cortex, mesenteric artery and left ventricle) were rapidly harvested, weighed, placed in iced perchloric acid (0.4 M), frozen in liquid nitrogen and stored at −70° C. until subsequent analysis. To quantify noradrenaline and dopamine concentrations, tissues were homogenized by brief sonication and centrifuged at 13,000 rpm for 30 minutes at 4° C. The supernatant, spiked with 3,4-dihydroxybenzylamine (internal standard), was assayed for noradrenaline and dopamine by HPLC using electrochemical detection.\n(§2) In vitro assay of selected enzymes and neurotransmitter receptors. The activity of 2a at eleven different enzymes was determined using established assays (PanLabs Inc, Foster City, Calif.). The affinity of 2a for thirteen selected receptors was determined by radioligand binding assays using standard filtration techniques and membrane preparations. Binding data were analyzed by iterative curve fitting to a four parameter logistic equation. Ki values were calculated using the Cheng-Prusoff equation."}, "β2 adrenoceptors": {"target": "β2 adrenoceptors (Homo sapiens, UniProt P07550)", "sequence (P07550 whole entry)": "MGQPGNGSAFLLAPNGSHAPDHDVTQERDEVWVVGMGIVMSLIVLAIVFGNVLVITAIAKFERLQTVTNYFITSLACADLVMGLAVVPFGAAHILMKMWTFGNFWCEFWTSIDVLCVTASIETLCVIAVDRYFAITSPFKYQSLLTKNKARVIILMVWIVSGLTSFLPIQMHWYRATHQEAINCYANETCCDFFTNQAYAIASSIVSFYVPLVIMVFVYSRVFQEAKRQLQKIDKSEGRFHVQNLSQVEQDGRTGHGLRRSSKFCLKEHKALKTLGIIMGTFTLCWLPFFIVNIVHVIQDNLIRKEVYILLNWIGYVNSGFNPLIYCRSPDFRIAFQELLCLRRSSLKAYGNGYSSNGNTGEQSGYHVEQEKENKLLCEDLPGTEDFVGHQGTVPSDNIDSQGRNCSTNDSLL", "experiment": "Radioligand binding assay", "experimental": "as §1, §2"}, "β1 adrenoceptors": {"target": "β1 adrenoceptors (Homo sapiens, UniProt P08588)", "sequence (P08588 whole entry)": "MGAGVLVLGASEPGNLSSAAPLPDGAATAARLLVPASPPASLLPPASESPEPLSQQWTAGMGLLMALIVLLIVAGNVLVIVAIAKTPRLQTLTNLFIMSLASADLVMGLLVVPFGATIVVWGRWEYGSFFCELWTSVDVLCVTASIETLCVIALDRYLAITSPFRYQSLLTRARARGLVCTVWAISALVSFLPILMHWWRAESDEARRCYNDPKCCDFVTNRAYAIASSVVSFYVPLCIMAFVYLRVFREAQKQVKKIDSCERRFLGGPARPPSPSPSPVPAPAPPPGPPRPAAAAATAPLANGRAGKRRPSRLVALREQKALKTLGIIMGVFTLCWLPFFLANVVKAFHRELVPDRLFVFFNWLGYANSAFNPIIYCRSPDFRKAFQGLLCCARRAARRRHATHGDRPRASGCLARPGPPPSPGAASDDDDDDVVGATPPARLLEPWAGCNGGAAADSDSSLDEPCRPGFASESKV", "experiment": "Radioligand binding assay", "experimental": "as §1, §2"}, "μ opioid receptors": {"target": "μ opioid receptors (Homo sapiens, UniProt P35372)", "sequence (P35372 whole entry)": "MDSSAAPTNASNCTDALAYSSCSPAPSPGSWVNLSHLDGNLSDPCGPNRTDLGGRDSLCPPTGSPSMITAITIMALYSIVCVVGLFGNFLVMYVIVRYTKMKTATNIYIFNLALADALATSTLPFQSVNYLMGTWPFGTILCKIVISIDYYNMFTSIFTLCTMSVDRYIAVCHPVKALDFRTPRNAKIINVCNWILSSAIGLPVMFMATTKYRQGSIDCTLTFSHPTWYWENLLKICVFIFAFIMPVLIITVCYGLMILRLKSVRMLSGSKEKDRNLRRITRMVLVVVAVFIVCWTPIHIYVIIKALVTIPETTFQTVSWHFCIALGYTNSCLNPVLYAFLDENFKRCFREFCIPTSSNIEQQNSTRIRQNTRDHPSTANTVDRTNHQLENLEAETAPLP", "experiment": "Radioligand binding assay", "experimental": "as §1, §2"}, "M1 muscarinic receptors": {"target": "M1 muscarinic receptors (Homo sapiens, UniProt P11229)", "sequence (P11229 whole entry)": "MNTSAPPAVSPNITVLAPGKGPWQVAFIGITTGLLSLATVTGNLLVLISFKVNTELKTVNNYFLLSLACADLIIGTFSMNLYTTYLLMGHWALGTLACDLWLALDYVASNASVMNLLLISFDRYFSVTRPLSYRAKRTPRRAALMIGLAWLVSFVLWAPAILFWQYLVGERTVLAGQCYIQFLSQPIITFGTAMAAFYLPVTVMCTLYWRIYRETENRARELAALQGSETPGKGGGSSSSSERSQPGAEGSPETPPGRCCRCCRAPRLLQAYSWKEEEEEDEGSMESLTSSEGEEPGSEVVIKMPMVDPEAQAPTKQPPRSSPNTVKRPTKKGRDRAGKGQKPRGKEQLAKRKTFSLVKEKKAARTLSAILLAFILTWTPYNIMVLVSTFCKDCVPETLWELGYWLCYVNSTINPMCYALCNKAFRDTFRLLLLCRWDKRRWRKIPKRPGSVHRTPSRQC", "experiment": "Radioligand binding assay", "experimental": "as §1, §2"}, "D2 dopamine receptors": {"target": "D2 dopamine receptors (Homo sapiens, UniProt P14416)", "sequence (P14416 whole entry)": "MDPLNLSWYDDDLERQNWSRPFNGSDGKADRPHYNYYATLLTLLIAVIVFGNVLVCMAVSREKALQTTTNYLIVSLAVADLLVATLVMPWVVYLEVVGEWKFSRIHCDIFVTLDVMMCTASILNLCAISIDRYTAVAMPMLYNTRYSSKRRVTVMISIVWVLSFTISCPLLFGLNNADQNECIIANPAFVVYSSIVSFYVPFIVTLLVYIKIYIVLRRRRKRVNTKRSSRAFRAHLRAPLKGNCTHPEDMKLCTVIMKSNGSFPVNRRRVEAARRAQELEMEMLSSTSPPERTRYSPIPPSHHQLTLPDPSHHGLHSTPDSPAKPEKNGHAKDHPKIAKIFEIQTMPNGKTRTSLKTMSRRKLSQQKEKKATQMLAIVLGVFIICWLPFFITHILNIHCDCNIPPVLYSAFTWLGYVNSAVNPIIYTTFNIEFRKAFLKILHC", "experiment": "Radioligand binding assay", "experimental": "as §1, §2"}, "[1]": {"target": "5-HT2A serotonin receptors (Homo sapiens, UniProt P28223)", "sequence (P28223 whole entry)": "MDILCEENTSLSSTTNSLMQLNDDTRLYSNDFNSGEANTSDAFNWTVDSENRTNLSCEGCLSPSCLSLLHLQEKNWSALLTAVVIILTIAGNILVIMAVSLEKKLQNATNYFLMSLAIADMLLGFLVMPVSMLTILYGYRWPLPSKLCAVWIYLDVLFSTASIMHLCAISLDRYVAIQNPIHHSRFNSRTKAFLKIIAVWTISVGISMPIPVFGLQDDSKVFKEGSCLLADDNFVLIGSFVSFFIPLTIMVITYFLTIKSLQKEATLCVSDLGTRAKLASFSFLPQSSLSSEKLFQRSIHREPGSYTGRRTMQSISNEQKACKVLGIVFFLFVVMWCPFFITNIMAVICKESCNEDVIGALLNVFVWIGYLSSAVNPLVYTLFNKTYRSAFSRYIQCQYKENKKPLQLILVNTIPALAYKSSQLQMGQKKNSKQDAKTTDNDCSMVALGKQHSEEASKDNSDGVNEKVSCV", "experiment": "Radioligand binding assay", "experimental": "as §1, §2"}, "D1 dopamine receptors": {"target": "D1 dopamine receptors (Homo sapiens, UniProt P21728)", "sequence (P21728 whole entry)": "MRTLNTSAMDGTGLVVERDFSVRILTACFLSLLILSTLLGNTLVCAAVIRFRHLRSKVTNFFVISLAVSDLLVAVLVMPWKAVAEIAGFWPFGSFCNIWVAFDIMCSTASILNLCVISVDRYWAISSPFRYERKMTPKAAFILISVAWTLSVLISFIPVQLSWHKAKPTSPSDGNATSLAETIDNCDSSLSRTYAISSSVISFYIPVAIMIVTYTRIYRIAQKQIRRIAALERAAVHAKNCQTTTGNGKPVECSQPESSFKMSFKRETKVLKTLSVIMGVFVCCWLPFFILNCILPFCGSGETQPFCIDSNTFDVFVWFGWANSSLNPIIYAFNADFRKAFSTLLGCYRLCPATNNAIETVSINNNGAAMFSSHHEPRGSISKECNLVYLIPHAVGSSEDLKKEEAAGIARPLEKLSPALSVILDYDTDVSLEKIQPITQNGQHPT", "experiment": "Radioligand binding assay", "experimental": "as §1, §2"}, "⊕1B adrenoceptors": {"target": "⊕1B adrenoceptors (Homo sapiens, UniProt P35368)", "experiment": "Radioligand binding assay", "experimental": "as §1, §2"}, "[2]": {"target": "5-HT1A serotonin receptors (Homo sapiens, UniProt P08908)", "sequence (P08908 whole entry)": "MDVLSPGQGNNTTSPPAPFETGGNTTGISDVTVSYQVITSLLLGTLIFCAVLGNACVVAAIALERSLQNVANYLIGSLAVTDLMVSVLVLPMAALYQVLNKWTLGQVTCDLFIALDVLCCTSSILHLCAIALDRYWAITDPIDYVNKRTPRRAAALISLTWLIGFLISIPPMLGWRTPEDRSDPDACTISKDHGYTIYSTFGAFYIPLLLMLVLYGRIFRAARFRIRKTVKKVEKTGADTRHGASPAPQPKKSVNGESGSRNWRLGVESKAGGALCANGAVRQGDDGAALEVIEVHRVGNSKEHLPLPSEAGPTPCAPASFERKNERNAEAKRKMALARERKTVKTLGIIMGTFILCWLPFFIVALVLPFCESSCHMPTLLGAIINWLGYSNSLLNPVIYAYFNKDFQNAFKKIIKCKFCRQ", "experiment": "Radioligand binding assay", "experimental": "as §1, §2"}, "α2B adrenoceptors": {"target": "α2B adrenoceptors (Homo sapiens, UniProt P18089)", "sequence (P18089 whole entry)": "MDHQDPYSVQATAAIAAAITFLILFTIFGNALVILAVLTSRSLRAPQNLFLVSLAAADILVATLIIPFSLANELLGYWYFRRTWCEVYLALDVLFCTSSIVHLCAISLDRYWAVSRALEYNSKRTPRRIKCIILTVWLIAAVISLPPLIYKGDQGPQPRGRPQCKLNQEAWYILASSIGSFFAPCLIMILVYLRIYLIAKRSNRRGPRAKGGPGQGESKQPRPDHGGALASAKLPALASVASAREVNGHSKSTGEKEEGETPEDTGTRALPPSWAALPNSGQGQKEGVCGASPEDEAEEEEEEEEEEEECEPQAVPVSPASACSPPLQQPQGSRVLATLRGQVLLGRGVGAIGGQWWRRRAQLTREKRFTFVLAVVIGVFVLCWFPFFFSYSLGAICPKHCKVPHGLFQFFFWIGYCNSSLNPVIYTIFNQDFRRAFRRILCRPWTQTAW", "experiment": "Radioligand binding assay", "experimental": "as §1, §2"}, "[3]": {"target": "5-HT2C serotonin receptors (Homo sapiens, UniProt P28335)", "sequence (P28335 33-458)": "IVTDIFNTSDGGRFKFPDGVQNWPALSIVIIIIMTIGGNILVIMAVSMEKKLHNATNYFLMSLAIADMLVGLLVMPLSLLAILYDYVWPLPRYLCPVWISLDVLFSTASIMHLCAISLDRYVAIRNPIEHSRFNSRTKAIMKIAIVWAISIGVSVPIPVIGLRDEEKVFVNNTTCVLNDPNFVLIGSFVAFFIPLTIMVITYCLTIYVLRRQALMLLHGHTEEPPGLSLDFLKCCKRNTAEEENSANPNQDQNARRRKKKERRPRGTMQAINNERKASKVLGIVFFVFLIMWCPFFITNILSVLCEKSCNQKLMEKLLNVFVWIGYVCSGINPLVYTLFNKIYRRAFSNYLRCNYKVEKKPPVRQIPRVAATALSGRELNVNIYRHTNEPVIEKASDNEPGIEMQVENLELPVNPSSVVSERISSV", "experiment": "Radioligand binding assay", "experimental": "as §1, §2"}, "squirrel monkeys": {"tested_on": "squirrel monkeys", "experiment": "Safety and tolerability of oral dosing in squirrel monkeys", "assay_type": "in vivo, squirrel monkeys (Saimiri sciureus)", "settings": "0.5, 2.0, 5.0 mg/kg twice daily for 5 days", "experimental": "Twenty-seven (27) mature squirrel monkeys (Saimiri sciureus), sixteen females and eleven males were used for this study. The monkeys were maintained on a 13 h/11 h light-dark cycle, with food and water available ad libitum. All procedures used in this study followed NIH guidelines and were approved by the Institutional Animal Care and Use Committee (IACUC). Animals were individually housed and allowed a minimum of one month to acclimate to the colony prior to commencing behavioral studies. A total of six squirrel monkeys, three non-lesioned and three lesioned (received 2 mg/kg MPTP 3 months prior), were used for these studies. To determine the optimal route of administration of drug nepicastat, three different approaches were examined including (i) insertion into treats, (ii) oral syringe, and (ii) oral gavage. […] (ii) Oral syringe injection of drug (0.5, 2, and 5 mg/kg) into the mouth of three non-lesioned and three lesioned monkeys was also not an acceptable route since animals tended to spit out the solution at the highest drug concentration. (iii) Oral gavage administration was carried out in 3 MPTP-Iesioned monkeys at the highest dose (5 mg/kg) and was well accepted.\nA total of six squirrel monkeys, three non-lesioned and three lesioned (received 2 mg/kg MPTP 3 months prior), were used for these studies. […]"}, "[4]": {"tested_on": "heart rate, systolic blood pressure", "experiment": "Heart rate and tail cuff systolic blood pressure, 21 days daily treatment", "assay_type": "in vivo, SHR", "settings": "1 and 10 mg/kg p.o. for 21 days"}},
  "data": [
    {"smiles": "Cl.NCc1c[nH]c(=S)n1[C@H]1CCc2c(F)cc(F)cc2C1", "note": "[nepicastat, (S)-5-Aminomethyl-1-(5,7-difluoro-1,2,3,4-tetrahydronaphth-2-yl)-2,3-dihydro-2-thioxo-1H-imidazole hydrochloride]", "values": [
      {"measurement": "Ki", "setting": "α2A adrenoceptors", "result": "> 10", "unit": "µM"},
      {"measurement": "Ki", "setting": "β2 adrenoceptors", "result": "> 10", "unit": "µM"},
      {"measurement": "Ki", "setting": "β1 adrenoceptors", "result": "> 10", "unit": "µM"},
      {"measurement": "Ki", "setting": "μ opioid receptors", "result": "> 10", "unit": "µM"},
      {"measurement": "Ki", "setting": "M1 muscarinic receptors", "result": "> 10", "unit": "µM"},
      {"measurement": "Ki", "setting": "D2 dopamine receptors", "result": "> 10", "unit": "µM"},
      {"measurement": "Ki", "setting": "[1]", "result": "> 10", "unit": "µM"},
      {"measurement": "Ki", "setting": "D1 dopamine receptors", "result": "> 10", "unit": "µM"},
      {"measurement": "Ki", "setting": "⊕1B adrenoceptors", "result": "> 10", "unit": "µM"},
      {"measurement": "Ki", "setting": "[2]", "result": "> 10", "unit": "µM"},
      {"measurement": "Ki", "setting": "α2B adrenoceptors", "result": "> 10", "unit": "µM"},
      {"measurement": "Ki", "setting": "[3]", "result": "> 10", "unit": "µM"},
      {"measurement": "tolerability", "setting": "squirrel monkeys", "result": "well tolerated at the two lower doses"},
      {"measurement": "heart rate and systolic blood pressure (tail cuff)", "setting": "[4]", "result": "did not alter heart rate, or systolic blood pressure"}
    ]}
  ]
}
